Results on 17 molecules are retold here after patent US11505547B2, “Compounds” (STEP PHARMA S.A.S., priority 2017, dated 2022).

Each structure is given as a SMILES string.

One assay concerns the target T1, human CTPS1 (Homo sapiens, UniProt P17812).
T1 construct: purchased Proteros biostructures GmbH
T1 sequence (P17812 1-591): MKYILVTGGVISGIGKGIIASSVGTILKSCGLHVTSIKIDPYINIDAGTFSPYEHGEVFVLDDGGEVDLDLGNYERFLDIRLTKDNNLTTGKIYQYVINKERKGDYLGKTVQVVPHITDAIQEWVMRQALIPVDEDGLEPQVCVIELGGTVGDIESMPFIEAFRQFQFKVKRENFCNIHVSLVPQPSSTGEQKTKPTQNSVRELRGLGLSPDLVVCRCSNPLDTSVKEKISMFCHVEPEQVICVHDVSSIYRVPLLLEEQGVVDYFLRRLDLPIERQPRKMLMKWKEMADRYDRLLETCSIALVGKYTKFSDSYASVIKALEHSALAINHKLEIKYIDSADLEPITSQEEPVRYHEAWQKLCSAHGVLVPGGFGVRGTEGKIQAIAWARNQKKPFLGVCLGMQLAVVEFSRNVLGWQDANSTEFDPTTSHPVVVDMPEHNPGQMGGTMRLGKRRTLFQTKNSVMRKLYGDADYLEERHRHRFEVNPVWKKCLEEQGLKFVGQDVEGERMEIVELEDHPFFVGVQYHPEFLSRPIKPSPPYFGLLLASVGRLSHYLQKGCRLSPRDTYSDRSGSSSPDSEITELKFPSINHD
Briefly: Human CTPS1 enzyme inhibition, ADP-Glo Max assay. The format is biochemical. The settings on record: human full length CTPS1, read-out: CTPS1 (Human CTPS1 Enzyme Inhibition data grouped by potency range, IC50). In outline: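 Full-length C-terminal FLAG-His-tagged protein in 50 mM Tris pH 8.0, 10 mM MgCl2, 0.01% Tween-20 and 2 mM L-cysteine, preincubated with compound for 10 min at 25 °C. The substrate mix held ATP 0.31 mM, GTP 0.034 mM, UTP 0.48 mM and L-glutamine 0.186 mM, and the reaction ran within its linear phase. ADP was read by ADP-Glo Max luminescence; IC50 from the % inhibition curve.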
Consider `CCOc1cncc(-c2ccc(C(=O)NC(C)(C)c3csc(NS(=O)(=O)C4CC4)n3)c(F)c2)n1` [Example R6, N-(2-(2-(cyclopropanesulfonamido)thiazol-4-yl)propan-2-yl)-4-(6-ethoxypyrazin-2-yl)-2-fluorobenzamide], for which the concentration for half-maximal inhibition (IC50) is below 0.1 µM.
Still for that read-out and setting: the same measure for `CCOc1cncc(-c2ccc(C(=O)NC(CC)c3csc(NS(=O)(=O)C4CC4)n3)c(F)c2)n1` (single isomer, unassigned) [Example R71, N-(1-(2-(cyclopropanesulfonamido)thiazol-4-yl)propyl)-4-(6-ethoxypyrazin-2-yl)-2-fluorobenzamide]: below 0.1 µM; for `CC(C)(NC(=O)c1ccc(-c2cncc(C(F)(F)F)n2)cc1F)c1csc(NS(=O)(=O)C2CC2)n1` [Example R42, N-(2-(2-(cyclopropanesuIfonamido)thiazol-4-yl)propan-2-yl)-2-fluoro-4-(6-(trifluoromethyl)pyrazin-2-yl)benzamide]: below 0.1 µM.
Same read-out and setting: next, `CCC(NC(=O)c1ccc(-c2cncc(C(F)(F)F)c2)cc1)c1csc(NS(=O)(=O)C2CC2)n1` (racemic) [Example R2, N-(1-(2-(cyclopropanesulfonamido)thiazol-4-yl)propyl)-4-(5-(trifluoromethyl)pyridin-3-yl)benzamide]: 0.1 to 1 µM; `CCOc1cncc(-c2ccc(C(=O)NC(CCOC)c3csc(NS(=O)(=O)C4CC4)n3)c(F)c2)n1` (single isomer, unassigned) [Example R92, N-(1-(2-(cyclopropanesulfonamido)thiazol-4-yl)-3-methoxypropyl)-4-(6-ethoxypyrazin-2-yl)-2-fluorobenzamide]: below 0.1 µM; `CCC(NC(=O)c1ccc(-c2cncc(C(F)(F)F)n2)cc1)c1csc(NS(=O)(=O)C2CC2)n1` (centres unmarked) [Example R5, N-(1-(2-(cyclopropanesulfonamido)thiazol-4-yl)propyl)-4-(6-(trifluoromethyl)pyrazin-2-yl)benzamide]: below 0.1 µM.
Consider `COc1cc(-c2cncc(C(F)(F)F)n2)ccc1C(=O)NC(C)(C)c1csc(NS(=O)(=O)C2CC2)n1` [Example R48, N-(2-(2-(cyclopropanesuIfonamido)thiazol-4-yl)propan-2-yl)-2-methoxy-4-(6-(trifluoromethyl)pyrazin-2-yl)benzamide], for which the IC50 is 0.1 to 1 µM.
Still for that read-out and setting: next, `O=C(NC1(c2csc(NS(=O)(=O)C3CC3)n2)CC1)c1ccc(-c2cncc(C(F)(F)F)n2)cc1` [Example R84, N-(1-(2-(cyclopropanesulfonamido)thiazol-4-yl)cyclopropyl)-4-(6-(trifluoromethyl)pyrazin-2-yl)benzamide]: below 0.1 µM.
Same read-out and setting: the same measure for `Cc1ncccc1-c1ccc(C(=O)NC(C)(C)c2csc(NS(=O)(=O)C3CC3)n2)cc1` [Example R33]: 1 to 10 µM; for `CCC(NC(=O)c1ccc(-c2cnccn2)cc1)c1csc(NS(=O)(=O)C2CC2)n1` (racemic) [Example R67, N-(1-(2-(cyclopropanesulfonamido)thiazol-4-yl)propyl)-4-(pyrazin-2-yl)benzamide]: 0.1 to 1 µM.
Still for that read-out and setting: next, `COc1cc(-c2cncc(C#N)n2)ccc1C(=O)NC(C)(C)c1csc(NS(=O)(=O)C2CC2)n1` [Example R50, 4-(6-cyanopyrazin-2-yl)-N-(2-(2-(cyclopropanesulfonamido)thiazol-4-yl)propan-2-yl)-2-methoxybenzamide]: 1 to 10 µM.
As for `CCOc1cncc(-c2ccc(C(=O)NC(C)(C)c3csc(NS(=O)(=O)C4CC4)n3)c(C)c2)n1` [Example R46, N-(2-(2-(cyclopropanesuIfonamido)thiazol-4-yl)propan-2-yl)-4-(6-ethoxypyrazin-2-yl)-2-methylbenzamide], the IC50 was in the range of 0.1 to 1 µM.
The same measure, in the same setting: the same measure for `CCOc1cncc(-c2ccc(C(=O)NC(CC)c3csc(NS(=O)(=O)C4CC4)n3)c(F)c2)n1` (single isomer, unassigned) [Example R70, N-(1-(2-(cyclopropanesulfonamido)thiazol-4-yl)propyl)-4-(6-ethoxypyrazin-2-yl)-2-fluorobenzamide]: 0.1 to 1 µM; for `CCOc1cncc(-c2ccc(C(=O)NC(CCOC)c3csc(NS(=O)(=O)C4CC4)n3)cc2)n1` (centres unmarked) [Example R90, N-(1-(2-(cyclopropanesulfonamido)thiazol-4-yl)-3-methoxypropyl)-4-(6-ethoxypyrazin-2-yl)benzamide]: below 0.1 µM; for `CCc1cncc(-c2ccc(C(=O)NC(CCOC)c3csc(NS(=O)(=O)C4CC4)n3)c(F)c2)n1` (centres unmarked) [Example R86, N-(1-(2-(cyclopropanesulfonamido)thiazol-4-yl)-3-methoxypropyl)-4-(6-ethylpyrazin-2-yl)-2-fluorobenzamide]: 0.1 to 1 µM.
On the same count and under the same terms, the same measure for `CCC(CC)(NC(=O)c1ccc(-c2cncc(C)c2)cc1)c1csc(NS(=O)(=O)C2CC2)n1` [Example R17, N-(3-(2-(cyclopropanesulfonamido)thiazol-4-yl)pentan-3-yl)-4-(5-methylpyridin-3-yl)benzamide]: 0.1 to 1 µM.

The target of a further assay is T1, human CTPS1. As to the kind of experiment: RapidFire/MS-based enzyme selectivity assay, human CTPS1. The format is biochemical. The settings on record: RapidFire/MS IC50s, human CTPS1 versus CTPS2. As to the method:
Biological Example 2—RapidFire/MS-Based Enzyme Selectivity Assays
Human CTPS1 Versus CTPS2 Selectivity Assessment by RapidFire/MS Analysis.
The enzyme inhibitory activities against each target isoform of interest were determined for the compounds of the invention using an optimised RapidFire high-throughput mass spectrometry (RF/MS) assay format. RF/MS assays for both human CTPS1 and CTPS2 were performed in assay buffer consisting of 50 mM HEPES (Merck), 20 mM MgCl2, 5 mM KCl, 1 mM DTT, 0.01% Tween-20, pH to 8.0 accordingly. All reagents were from Sigma-Aldrich unless specified otherwise. Human full-length active C-terminal FLAG-His-tag CTPS1 (UniProtKB-P17812, CTPS[1-591]-[…]) was obtained from Proteros biostructures GmbH. Human full length active C-terminal FLAG-His-Avi tagged CTPS2 (UniProtKB-Q9NRF8, CTPS2 [1-586]-[…]) was obtained from Harker Bio.
Human CTPS (1 or 2) protein was prepared in 1× assay buffer to the final working protein concentration required for the reaction. A 2 uL volume per well of 2×CTPS (1 or 2) protein was mixed with 40 nL of compound using acoustic (ECHO) delivery and incubated for 10 minutes at 25° C. Each isoform enzymatic reaction was subsequently initiated by addition of 2 uL per well of a 2× substrate mix in assay buffer. For hCTPS1: ATP (0.3 mM), UTP (0.2 mM), GTP (0.07 mM) and L-glutamine (0.1 mM). For hCTPS2: ATP (0.1 mM), UTP (0.04 mM), GTP (0.03 mM) and L-glutamine (0.1 mM). Each mixture was incubated for an appropriate amount of time per isoform within the determined linear phase of the reaction at 25° C. A 60 uL volume of stop solution (1% formic acid with 0.5 uM ^13C9-^15N3-CTP in H2O) was added and the plate immediately heat-sealed and centrifuged for 10 minutes at 4,000 rpm. Following centrifugation, plates were loaded onto the Agilent RapidFire microfluidic solid phase extraction system coupled to an API4000 triple quadrupole mass spectrometer (RF/MS) for analysis.
In all cases, the enzyme converts UTP to CTP. […] Readout for data analysis was calculated as the ratio between the peak area of the product CTP and the internal standard ^13C9-^15N3-CTP. […]
(R=ratio/readout, P=product signal area, IS=internal standard signal area) […]
(I=Inhibition, Rneg=median of negative control readout values, Rpos=median of positive control readout values, Rsample=sample readout value)
Percentage inhibition was then plotted against compound concentration, and the 50% inhibitory concentration ([…]) was determined from the resultant concentration-response curve.
Fold selectivity between CTPS1 and CTPS2 was subsequently calculated according to the following equation: […]
`CCOc1cncc(-c2ccc(C(=O)NC(CCOC)c3csc(NS(=O)(=O)C4CC4)n3)c(F)c2)n1` (single isomer, unassigned) [Example R93, N-(1-(2-(cyclopropanesulfonamido)thiazol-4-yl)-3-methoxypropyl)-4-(6-ethoxypyrazin-2-yl)-2-fluorobenzamide]: the “Selectivity (fold selectivity between CTPS1 and CTPS2)” value is recorded as “+++ (>60 fold (+++))”.
Take `CCOc1cncc(-c2ccc(C(=O)NC(C)(C)c3csc(NS(=O)(=O)C4CC4)n3)c(F)c2)n1` [Example R6, N-(2-(2-(cyclopropanesulfonamido)thiazol-4-yl)propan-2-yl)-4-(6-ethoxypyrazin-2-yl)-2-fluorobenzamide]: the “Selectivity (fold selectivity between CTPS1 and CTPS2)” value was “++ (>30-60 fold (++))”.
On the same count and under the same terms, the same measure for `CCOc1cncc(-c2ccc(C(=O)NC(CC)c3csc(NS(=O)(=O)C4CC4)n3)c(F)c2)n1` (single isomer, unassigned) [Example R71, N-(1-(2-(cyclopropanesulfonamido)thiazol-4-yl)propyl)-4-(6-ethoxypyrazin-2-yl)-2-fluorobenzamide]: “+++ (>60 fold (+++))”; for `CCOc1cncc(-c2ccc(C(=O)NC(CCOC)c3csc(NS(=O)(=O)C4CC4)n3)c(F)c2)n1` (single isomer, unassigned) [Example R92, N-(1-(2-(cyclopropanesulfonamido)thiazol-4-yl)-3-methoxypropyl)-4-(6-ethoxypyrazin-2-yl)-2-fluorobenzamide]: “+++ (>60 fold (+++))”.

One may read the IC50 as the midpoint of a concentration-inhibition curve.
